Among the data in BigSolDB 2.1 are solubility (mole fraction) values, retold here.

For the compound `Cc1cc(C)c(S(=O)(=O)NC23CC4CC(CC(C4)C2)C3)c(C)c1`, the solubility (mole fraction) – broadly, the moles of solute divided by all moles in the saturated solution – runs as follows: (in n-hexane, 293.15 K) 0.000265; (in n-hexane, 298.15 K) 0.000307; (in n-hexane, 303.15 K) 0.000366; (in n-hexane, 308.15 K) 0.000444; (in n-hexane, 313.15 K) 0.000495; (in n-octanol, 293.15 K) 0.00383. Moreover, the solubility (mole fraction) by setting is: (in n-octanol, 298.15 K) 0.00452; (in n-octanol, 303.15 K) 0.00562; (in n-octanol, 308.15 K) 0.0068; (in n-octanol, 313.15 K) 0.00809.
As for `CC12CC3CC(C)(C1)CC(NS(=O)(=O)c1ccc([N+](=O)[O-])cc1)(C3)C2`, the solubility (mole fraction) amounted to 4.22e-05 (in n-hexane, 293.15 K); 5.67e-05 (in n-hexane, 298.15 K); 6.92e-05 (in n-hexane, 303.15 K); 8.55e-05 (in n-hexane, 308.15 K); 0.000105 (in n-hexane, 313.15 K); 0.00362 (in n-octanol, 293.15 K). Moreover, the solubility (mole fraction) (in n-octanol, 298.15 K) was determined as 0.00423; the solubility (mole fraction) (in n-octanol, 303.15 K) is 0.00511; the solubility (mole fraction) (in n-octanol, 308.15 K) is 0.0058; the solubility (mole fraction) (in n-octanol, 313.15 K) stood at 0.00664.
